Reference: patent publication US9850538B2, “Methods for diagnosing and treating diabetes” (The Board of Trustees of the University of Illinois, priority 2015, dated 2017)
Where two headings read alike, the source gives them in different places.

Experiments:
[1] = test system: NOD mice; experiment: Development of T1D in genetically susceptible NOD mice; format: in vivo; settings: NOD mice injected before clinical onset, starting between 18 and 24 weeks of age
[2] = test system: NOD mice; settings: injection; cited from earlier work
[3] = test system: inflammatory genes such as Cela3b, Cpb1, Pnlip and Cel; experiment: Quantitative real time-PCR of selected top hit genes; format: in vivo, mice
From the text: Expression levels of selected top hit genes were verified in spleens by quantitative real time-PCR using primer sets that were validated following MIQE guidelines and RNA derived from spleens of mice that were different from those used for microarray analysis. The expression of inflammatory genes such as Cela3b (elastase 3), Cpb1 (carboxyepetidase B1), Pnlip (pancreatic lipase) and Cel (carboxyl ester lipase) was prominent in the spleens of diabetic mice. […] However, Ctrl (chymotrypsin-like) gene substantially over-expressed in the exocrine pancreas was not repressed by TSA treatment, indicating the selectivity of gene regulation by chromatin remodeling in the pancreata. In addition, the mRNA levels of Pnliprp-1 (pancreatic lipase-related protein 1), Pnlilrp-2, Ctrl, Ctrc and Cpa1 were not altered by TSA treatment.

[4] = test system: elastase; experiment: Flow cytometry of intracellular elastase in Ly6C+ and Ly6G+ spleen cells; format: in vivo, mice
Protocol: It was next investigated whether there was a correlation between the numbers of inflammatory cells expressing elastase and the health status. To this end, spleen cells from diabetic mice and those treated with TSA and cured of diabetes were surface labeled with FITC labeled anti-Ly6C antibody (to stain macrophages) and anti-Ly6G antibody (to stain neutrophils). After staining, cells were fixed, permeabilized and incubated with rabbit antibody against elastase, followed by treatment with TRITC-labeled goat anti-rabbit antibody. Cells were analyzed by flow cytometry for the cell surface expression of Ly6C or Ly6G and these cells were gated and analyzed for the intracellular expression of elastase. […] Similarly, the numbers of Ly6G+ neutrophils co-expressing elastase protein were also diminished in TSA treated and cured mice. Thus, TSA treatment abrogated spontaneously occurring T1D in NOD mice, which was negatively correlated with the frequency of both Ly6C+ macrophages and Ly6G+ neutrophils that co-express elastase.

[5] = test system: spleen cells; experiment: Flow cytometry of innate immune cell frequency in spleen; format: in vivo, mice
Protocol: Insulin-producing beta cells can be destroyed by the inflammatory cells and the pro-inflammatory genes that were identified by microarray analysis and further validated by quantitative RT-PCR. Therefore, it was determined whether amelioration of T1D by TSA treatment involves alteration in the frequency of innate immune cells that are likely to express the Cela3b gene. Therefore, T1D susceptible NOD mice were injected with TSA before the clinical onset of diabetes, starting between 18 and 24 weeks of age, and spleen cells were stained with fluorochrome-labeled antibodies and analyzed by flow cytometry. The numbers of both macrophages of the CD11b+Ly6C+ phenotype and neutrophils expressing CD11b+Ly6G+ determinants, known to exert inflammatory responses and tissue damage, increased in the spleen of overtly diabetic mice when compared to prediabetic mice.

[6] = test system: elastase gene; settings: cited from earlier work
[7] = test system: islets; experiment: Confocal imaging of inflammatory cell infiltration in pancreatic sections; format: in vivo; settings: drug-treated and cured mice
Protocol: To visualize the effect of TSA treatment on the infiltration of inflammatory cells in the pancreas, paraffin-embedded pancreatic sections were treated with antibodies against insulin, Ly6C+ macrophages and Ly6G+ neutrophils. Sections were then imaged on a confocal microscope and the images analyzed. Both Ly6C+ macrophages and Ly6G+ neutrophils were evident in the islets of diabetic mice, as identified by co-staining with an anti-insulin antibody. In contrast, both Ly6C+ macrophages and Ly6G+ neutrophils were absent in the islets of drug-treated and cured mice. […] Treatment with TSA effectively eradicated the infiltration of inflammatory cells and thereby provides protection against T1D in the mouse model.

[8] = test system: spleen cells; experiment: Global gene expression profiling of spleen cells by microarray; format: in vivo, mice
Protocol: To understand the molecular mechanisms underlying protection against T1D bestowed by TSA treatment in NOD/Ltj mice, transcriptome (gene expression profiling) of spleen cells was analyzed by global gene expression profiling using a microarray approach. To this end, total RNA was isolated from diabetic and cured mice, converted into cRNA and then hybridized to AFFYMETRIX GENECHIP Mouse Genome 430 2.0 microarrays that contain 45,000 probe sets representing 34,000 mouse genes. Three-way analysis of gene expression in untreated-non-diabetic mice, overtly diabetic mice, and those cured by TSA treatment yielded 164 differentially regulated genes, filtered by an ANOVA p-value, 0.05. These highly regulated genes were used for hierarchical clustering. Microarray data sets were deposited at Gene Expression Omnibus (accession no. GSE 26461) (Jayaraman, et al. (2013) PLoS One 8:e55074).
Principal component analysis validated the up-regulation of a set of pro-inflammatory genes in uninduced spleens of overtly diabetic mice, and their repression by TSA treatment. This analysis clearly distinguished the genes that may be responsible for T1D manifestation and therefore of significant impact on the diagnosis of T1D in humans (Jayaraman, et al. (2013) PLoS One 8:e55074).

[9] = drug administration in mice; cited from earlier work
[10] = test system: islets of Langerhans; settings: TSA treatment; cited from earlier work

Which diabetes [1] does the source give for `CC(/C=C/C(=O)NO)=C\[C@@H](C)C(=O)c1ccc(N(C)C)cc1` [TSA, Trichostatin A] here?
The diabetes was “ameliorated diabetes”.

What about the “development of T1D” value [2] of the same molecule?
Its value is “prevents the development of T1D”.

And the “Ctrl (chymotrypsin-like) gene expression” value ([3]; over-expressed in the exocrine pancreas, pancreata)?
The value was “not repressed”.

And the “mRNA level of Cpa1” value ([3]; qRT-PCR)?
The value was “not altered”.

And the “mRNA level of Ctrc” value ([3]; qRT-PCR)?
Its value is “not altered”.

And the “mRNA level of Ctrl” value ([3]; qRT-PCR)?
The value was “not altered”.

And the “mRNA level of Pnlilrp-2” value ([3]; qRT-PCR)?
The value was “not altered”.

What about the “mRNA level of Pnliprp-1 (pancreatic lipase-related protein 1)” value ([3]; qRT-PCR) of the same molecule?
The value was “not altered”.

And the “expression level of Cel (carboxyl ester lipase)” value ([3]; qRT-PCR, spleens)?
Its value is “reduced the expression levels of these genes substantially”.

What about the “expression level of Cela3b (elastase 3)” value ([3]; qRT-PCR, spleens) of the same molecule?
Its value is “reduced the expression levels of these genes substantially”.

What about the “expression level of Cpb1 (carboxyepetidase B1)” value ([3]; qRT-PCR, spleens) of the same molecule?
The value was “reduced the expression levels of these genes substantially”.

What about the “expression level of Pnlip (pancreatic lipase)” value ([3]; qRT-PCR, spleens) of the same molecule?
Its value is “reduced the expression levels of these genes substantially”.

What about the “numbers of Ly6G+ neutrophils co-expressing elastase protein” value ([4]; spleens of TSA treated and cured mice) of the same molecule?
Its value is “diminished”.

What about the “numbers of Ly6C+ macrophages that contained elastase in the cytoplasm” value ([4]; spleens of cured versus diabetic mice) of the same molecule?
Its value is “significantly lower numbers”.

What about the “frequency of CD11b+F4/80+ macrophages” value ([5]; spleen, flow cytometry) of the same molecule?
Its value is “did not affect the frequency”.

And the “frequency of CD11b+Ly6C+ macrophages” value ([5]; spleen, flow cytometry)?
Its value is “reduced the frequency”.

What about the “frequency of CD11b+Ly6G+ neutrophils” value ([5]; spleen, flow cytometry) of the same molecule?
The value was “reduced the frequency”.

And the “numbers of dendritic cells expressing CD11c determinant” value ([5]; spleens, versus prediabetic and diabetic mice)?
The value was “Essentially, the same numbers”.

And the “expression of the elastase gene” value ([6]; peripheral lymphoid organ spleen)?
The value was “significantly lowered”.

And the “expression of the elastase gene” value ([6]; target organ pancreas)?
The value was “significantly lowered”.

What about the “Ly6C+ macrophages in the islets” value [7] of the same molecule?
The value was “absent”.

What about the “Ly6G+ neutrophils in the islets” value [7] of the same molecule?
The value was “absent”.

And the “set of genes (n=17) over-expressed in spleens of acutely diabetic mice” value ([8]; microarray, spleens)?
Its value is “repressed”.

And the “expression of lipases Pnliprp1, Pnliprp2, Cel and Pnilp functionally related to Cela3b” value ([8]; regulated along with Cela3b)?
The value was “downregulated”.

And the “side effects or gross pathological changes” value [9]?
Its value is “did not result in obvious side effects or gross pathological changes”.

What about the “beta cells producing insulin” value [10] of the same molecule?
Its value is “preservation of the beta cells”.

What about the “inflammation surrounding the islets of Langerhans” value [10] of the same molecule?
Its value is “eradication of inflammation surrounding the islets of Langerhans”.
